Reference: the NIST ThermoML archive (doi:10.1021/je901043q)

Test: xn = mol fraction of the nth substance listed
Details: 101 kPa, Liquid

CCCCn1cc[n+](C)c1.N#C[S-] [1-butyl-3-methylimidazolium thiocyanate] + CCCCCCCCCCO
Details | mass density [kg/m3] | viscosity [mPa·s]
298.15 K, x1 = 0.0747 | 843.95 | 13.07
298.15 K, x1 = 0.1621 | 864.67 | 15.5
298.15 K, x1 = 0.2537 | 886.57 | 18.67
298.15 K, x1 = 0.3512 | 910.03 | 22.48
298.15 K, x1 = 0.4924 | 944.3 | 28.36
298.15 K, x1 = 0.5922 | 968.81 | 32.87
298.15 K, x1 = 0.6659 | 987.05 | 36.09
298.15 K, x1 = 0.7576 | 1009.83 | 40
298.15 K, x1 = 0.8692 | 1037.62 | 45.01
298.15 K, x1 = 0.9587 | 1059.8 | 49.31
298.15 K, x1 = 1 | 1069.79 | 51.74
308.15 K, x1 = 0.0747 | 837.19 | 9.168
308.15 K, x1 = 0.1621 | 857.99 | 10.96
308.15 K, x1 = 0.2537 | 879.95 | 13.08
308.15 K, x1 = 0.3512 | 903.51 | 15.62
308.15 K, x1 = 0.4924 | 938.02 | 19.52
308.15 K, x1 = 0.5922 | 962.63 | 22.29
308.15 K, x1 = 0.6659 | 981.01 | 24.5
308.15 K, x1 = 0.7576 | 1003.83 | 27.12
308.15 K, x1 = 0.8692 | 1031.69 | 30.46
308.15 K, x1 = 0.9587 | 1053.86 | 33.3
308.15 K, x1 = 1 | 1063.89 | 34.87
318.15 K, x1 = 0.0747 | 830.4 | 6.582
318.15 K, x1 = 0.1621 | 851.35 | 7.964
318.15 K, x1 = 0.2537 | 873.42 | 9.541
318.15 K, x1 = 0.3512 | 897.08 | 11.39
318.15 K, x1 = 0.4924 | 931.78 | 14.06
318.15 K, x1 = 0.5922 | 956.5 | 16.04
318.15 K, x1 = 0.6659 | 974.94 | 17.59
318.15 K, x1 = 0.7576 | 997.87 | 19.4
318.15 K, x1 = 0.8692 | 1025.8 | 21.56
318.15 K, x1 = 0.9587 | 1048.02 | 23.3
318.15 K, x1 = 1 | 1058.02 | 24.19
328.15 K, x1 = 0.0747 | 823.59 | 4.88
328.15 K, x1 = 0.1621 | 844.7 | 5.959
328.15 K, x1 = 0.2537 | 866.89 | 7.162
328.15 K, x1 = 0.3512 | 890.79 | 8.553
328.15 K, x1 = 0.4924 | 925.54 | 10.62
328.15 K, x1 = 0.5922 | 950.4 | 11.98
328.15 K, x1 = 0.6659 | 968.92 | 12.98
328.15 K, x1 = 0.7576 | 991.96 | 14.04
328.15 K, x1 = 0.8692 | 1019.98 | 15.15
328.15 K, x1 = 0.9587 | 1042.2 | 16.1
328.15 K, x1 = 1 | 1052.19 | 16.7
338.15 K, x1 = 0.0747 | 816.7 | 3.741
338.15 K, x1 = 0.1621 | 838 | 4.567
338.15 K, x1 = 0.2537 | 860.36 | 5.526
338.15 K, x1 = 0.3512 | 884.37 | 6.586
338.15 K, x1 = 0.4924 | 919.35 | 8.183
338.15 K, x1 = 0.5922 | 944.32 | 9.243
338.15 K, x1 = 0.6659 | 962.91 | 9.998
338.15 K, x1 = 0.7576 | 986.05 | 10.76
338.15 K, x1 = 0.8692 | 1014.18 | 11.46
338.15 K, x1 = 0.9587 | 1036.43 | 12.18
338.15 K, x1 = 1 | 1046.43 | 12.73
348.15 K, x1 = 0.0747 | 809.76 | 2.909
348.15 K, x1 = 0.1621 | 831.23 | 3.578
348.15 K, x1 = 0.2537 | 853.79 | 4.411
348.15 K, x1 = 0.3512 | 877.97 | 5.195
348.15 K, x1 = 0.4924 | 913.13 | 6.455
348.15 K, x1 = 0.5922 | 938.26 | 7.278
348.15 K, x1 = 0.6659 | 956.95 | 7.875
348.15 K, x1 = 0.7576 | 980.21 | 8.487
348.15 K, x1 = 0.8692 | 1008.43 | 9.047
348.15 K, x1 = 0.9587 | 1030.7 | 9.624
348.15 K, x1 = 1 | 1040.7 | 9.98

CCCCn1cc[n+](C)c1.N#C[S-] [1-butyl-3-methylimidazolium thiocyanate] + CCCCCCCO
Details | mass density [kg/m3] | viscosity [mPa·s]
298.15 K, x1 = 0.0806 | 845.64 | 7.319
298.15 K, x1 = 0.14 | 864.24 | 8.422
298.15 K, x1 = 0.2203 | 888.14 | 10.16
298.15 K, x1 = 0.3006 | 910.91 | 12.31
298.15 K, x1 = 0.3997 | 937.73 | 15.5
298.15 K, x1 = 0.4903 | 960.98 | 18.92
298.15 K, x1 = 0.5703 | 980.45 | 22.22
298.15 K, x1 = 0.6949 | 1008.83 | 28.65
298.15 K, x1 = 0.7981 | 1031.04 | 34.6
298.15 K, x1 = 0.8852 | 1048.62 | 39.81
298.15 K, x1 = 0.9793 | 1066.13 | 47.21
298.15 K, x1 = 1 | 1069.79 | 51.74
308.15 K, x1 = 0.0806 | 838.75 | 5.395
308.15 K, x1 = 0.14 | 857.45 | 6.213
308.15 K, x1 = 0.2203 | 881.49 | 7.479
308.15 K, x1 = 0.3006 | 904.36 | 9.061
308.15 K, x1 = 0.3997 | 931.34 | 11.31
308.15 K, x1 = 0.4903 | 954.7 | 13.59
308.15 K, x1 = 0.5703 | 974.26 | 15.73
308.15 K, x1 = 0.6949 | 1002.79 | 19.86
308.15 K, x1 = 0.7981 | 1025.06 | 23.67
308.15 K, x1 = 0.8852 | 1042.69 | 26.77
308.15 K, x1 = 0.9793 | 1060.22 | 31.2
308.15 K, x1 = 1 | 1063.89 | 34.87
318.15 K, x1 = 0.0806 | 831.82 | 4.085
318.15 K, x1 = 0.14 | 850.63 | 4.725
318.15 K, x1 = 0.2203 | 874.82 | 5.654
318.15 K, x1 = 0.3006 | 897.84 | 6.884
318.15 K, x1 = 0.3997 | 924.97 | 8.55
318.15 K, x1 = 0.4903 | 948.46 | 10.19
318.15 K, x1 = 0.5703 | 968.12 | 11.67
318.15 K, x1 = 0.6949 | 996.76 | 14.49
318.15 K, x1 = 0.7981 | 1019.11 | 17.02
318.15 K, x1 = 0.8852 | 1036.79 | 19.03
318.15 K, x1 = 0.9793 | 1054.36 | 21.9
318.15 K, x1 = 1 | 1058.02 | 24.19
328.15 K, x1 = 0.0806 | 824.81 | 3.166
328.15 K, x1 = 0.14 | 843.79 | 3.685
328.15 K, x1 = 0.2203 | 868.14 | 4.369
328.15 K, x1 = 0.3006 | 891.32 | 5.306
328.15 K, x1 = 0.3997 | 918.62 | 6.634
328.15 K, x1 = 0.4903 | 942.26 | 7.875
328.15 K, x1 = 0.5703 | 962.02 | 8.926
328.15 K, x1 = 0.6949 | 990.79 | 11.02
328.15 K, x1 = 0.7981 | 1013.22 | 12.79
328.15 K, x1 = 0.8852 | 1030.94 | 14.2
328.15 K, x1 = 0.9793 | 1048.56 | 16.16
328.15 K, x1 = 1 | 1052.19 | 16.7
338.15 K, x1 = 0.0806 | 817.69 | 2.508
338.15 K, x1 = 0.14 | 836.85 | 2.935
338.15 K, x1 = 0.2203 | 861.43 | 3.47
338.15 K, x1 = 0.3006 | 884.79 | 4.186
338.15 K, x1 = 0.3997 | 912.28 | 5.262
338.15 K, x1 = 0.4903 | 936.05 | 6.24
338.15 K, x1 = 0.5703 | 955.92 | 7.057
338.15 K, x1 = 0.6949 | 984.85 | 8.62
338.15 K, x1 = 0.7981 | 1007.36 | 9.943
338.15 K, x1 = 0.8852 | 1025.11 | 10.97
338.15 K, x1 = 0.9793 | 1042.8 | 12.38
338.15 K, x1 = 1 | 1046.43 | 12.73
348.15 K, x1 = 0.0806 | 810.46 | 2.022
348.15 K, x1 = 0.14 | 829.85 | 2.383
348.15 K, x1 = 0.2203 | 854.69 | 2.837
348.15 K, x1 = 0.3006 | 878.24 | 3.403
348.15 K, x1 = 0.3997 | 905.95 | 4.222
348.15 K, x1 = 0.4903 | 929.89 | 5.029
348.15 K, x1 = 0.5703 | 949.88 | 5.663
348.15 K, x1 = 0.6949 | 978.95 | 6.884
348.15 K, x1 = 0.7981 | 1001.53 | 7.93
348.15 K, x1 = 0.8852 | 1019.34 | 8.707
348.15 K, x1 = 0.9793 | 1037.06 | 9.802
348.15 K, x1 = 1 | 1040.7 | 9.98
